Assay results: ChEMBL document CHEMBL1201862, “PubChem BioAssay data set” (2004)
Values belong to the compound of their own block, whether it stands above or below them. Active and inactive are the calls of the source.

How the values were obtained:
[1] = molecular target: SWI/SNF-related matrix-associated actin-dependent regulator of chromatin subfamily A member 2 (Homo sapiens, UniProt P51531); assay: Luminescence-based cell-based high throughput dose response assay to identify activators of the function of SWI/SNF related, matrix associated, actin dependent regulator of chromatin, subfamily a, member 2 (SMARCA2, BRM).; type: functional
Sequence of SWI/SNF-related matrix-associated actin-dependent regulator of chromatin subfamily A member 2 (P51531 whole entry, the tested form may be a part): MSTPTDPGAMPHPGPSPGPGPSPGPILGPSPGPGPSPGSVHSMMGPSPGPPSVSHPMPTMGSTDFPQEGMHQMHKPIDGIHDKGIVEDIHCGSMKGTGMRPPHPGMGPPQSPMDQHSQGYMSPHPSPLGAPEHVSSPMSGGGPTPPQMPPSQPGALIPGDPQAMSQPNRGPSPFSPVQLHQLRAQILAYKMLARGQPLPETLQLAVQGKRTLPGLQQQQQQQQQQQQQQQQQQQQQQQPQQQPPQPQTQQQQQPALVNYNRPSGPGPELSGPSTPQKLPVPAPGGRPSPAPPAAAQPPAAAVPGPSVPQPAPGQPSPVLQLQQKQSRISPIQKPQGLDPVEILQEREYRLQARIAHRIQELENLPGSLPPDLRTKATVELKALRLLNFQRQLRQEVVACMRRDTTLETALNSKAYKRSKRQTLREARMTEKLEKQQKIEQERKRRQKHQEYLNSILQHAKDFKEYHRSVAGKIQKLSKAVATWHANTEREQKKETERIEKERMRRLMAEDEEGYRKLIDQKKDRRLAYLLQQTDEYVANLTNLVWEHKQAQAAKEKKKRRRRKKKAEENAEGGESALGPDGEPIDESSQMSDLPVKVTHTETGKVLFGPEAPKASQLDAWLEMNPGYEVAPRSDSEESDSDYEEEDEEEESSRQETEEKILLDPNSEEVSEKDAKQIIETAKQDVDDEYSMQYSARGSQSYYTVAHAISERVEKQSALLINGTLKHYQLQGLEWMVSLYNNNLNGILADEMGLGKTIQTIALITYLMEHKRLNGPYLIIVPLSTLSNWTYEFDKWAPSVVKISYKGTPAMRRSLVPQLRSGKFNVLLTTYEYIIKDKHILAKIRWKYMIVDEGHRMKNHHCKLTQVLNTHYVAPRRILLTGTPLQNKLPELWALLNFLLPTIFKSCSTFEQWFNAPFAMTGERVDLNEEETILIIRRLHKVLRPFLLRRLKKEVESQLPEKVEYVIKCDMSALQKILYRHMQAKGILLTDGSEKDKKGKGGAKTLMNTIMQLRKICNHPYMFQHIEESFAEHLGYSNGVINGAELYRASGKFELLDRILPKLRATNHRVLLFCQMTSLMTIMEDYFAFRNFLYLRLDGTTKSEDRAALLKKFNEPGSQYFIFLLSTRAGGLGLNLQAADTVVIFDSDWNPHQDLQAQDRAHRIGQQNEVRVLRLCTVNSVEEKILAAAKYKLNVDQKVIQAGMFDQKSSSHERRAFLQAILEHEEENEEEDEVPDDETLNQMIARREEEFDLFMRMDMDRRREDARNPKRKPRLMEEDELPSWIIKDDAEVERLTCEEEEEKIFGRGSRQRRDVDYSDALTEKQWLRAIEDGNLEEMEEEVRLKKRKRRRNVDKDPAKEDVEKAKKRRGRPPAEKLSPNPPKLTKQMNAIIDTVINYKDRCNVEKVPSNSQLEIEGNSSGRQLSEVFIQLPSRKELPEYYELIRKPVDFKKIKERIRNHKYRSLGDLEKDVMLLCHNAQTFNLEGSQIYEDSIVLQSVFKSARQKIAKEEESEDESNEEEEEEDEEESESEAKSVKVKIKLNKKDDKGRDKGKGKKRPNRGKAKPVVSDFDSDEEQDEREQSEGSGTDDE

[2] = molecular target: E3 ubiquitin-protein ligase UHRF1 (Homo sapiens, UniProt Q96T88); assay: Counterscreen for inhibitors of 5-meCpG-binding domain protein 2 (MBD2): TRFRET-based biochemical high throughput dose response assay to identify inhibitors of binding of ubiquitin-like with PHD and ring finger domains 1 (UHRF1) to methylated oligonucleotide.
[3] = Counterscreen for activators of the function of SWI/SNF related, matrix associated, actin dependent regulator of chromatin, subfamily a, member 2 (SMARCA2, BRM): Luminescence-based cell-based high throughput dose response assay to identify non-selective compounds using the VP16 reporter assay.; type: functional
[4] = molecular target: Caspase-6 (Homo sapiens, UniProt P55212); assay: human caspase-6 inhibitors, dose response, biochemical, VEID-R110 fluorescence, cherry-pick (AID 720632)
Sequence of Caspase-6 (P55212 24-179 limits assumed): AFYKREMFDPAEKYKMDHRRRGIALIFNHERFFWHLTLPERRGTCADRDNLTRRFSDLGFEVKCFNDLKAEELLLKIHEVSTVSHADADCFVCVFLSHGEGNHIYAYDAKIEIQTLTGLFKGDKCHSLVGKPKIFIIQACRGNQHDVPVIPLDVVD
Sequence of Caspase-6 (P55212 194-293 limits assumed): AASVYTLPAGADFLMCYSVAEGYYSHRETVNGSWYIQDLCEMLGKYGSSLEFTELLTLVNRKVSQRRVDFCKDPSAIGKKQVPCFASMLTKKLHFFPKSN

[5] = ADAM10 protease inhibitors, dose response, selectivity assay for ADAM17 exosite inhibitor project, biochemical, FRET peptide substrate, recombinant human ADAM10 (AID 743259);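 also: ADAM10 enzyme cleaving a FRET peptide substrate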
[6] = molecular target: Disintegrin and metalloproteinase domain-containing protein 17 (Homo sapiens, UniProt P78536); assay: exosite inhibitors of ADAM17, dose response, biochemical (AID 743260)
Sequence of Disintegrin and metalloproteinase domain-containing protein 17 (P78536 whole entry, the tested form may be a part): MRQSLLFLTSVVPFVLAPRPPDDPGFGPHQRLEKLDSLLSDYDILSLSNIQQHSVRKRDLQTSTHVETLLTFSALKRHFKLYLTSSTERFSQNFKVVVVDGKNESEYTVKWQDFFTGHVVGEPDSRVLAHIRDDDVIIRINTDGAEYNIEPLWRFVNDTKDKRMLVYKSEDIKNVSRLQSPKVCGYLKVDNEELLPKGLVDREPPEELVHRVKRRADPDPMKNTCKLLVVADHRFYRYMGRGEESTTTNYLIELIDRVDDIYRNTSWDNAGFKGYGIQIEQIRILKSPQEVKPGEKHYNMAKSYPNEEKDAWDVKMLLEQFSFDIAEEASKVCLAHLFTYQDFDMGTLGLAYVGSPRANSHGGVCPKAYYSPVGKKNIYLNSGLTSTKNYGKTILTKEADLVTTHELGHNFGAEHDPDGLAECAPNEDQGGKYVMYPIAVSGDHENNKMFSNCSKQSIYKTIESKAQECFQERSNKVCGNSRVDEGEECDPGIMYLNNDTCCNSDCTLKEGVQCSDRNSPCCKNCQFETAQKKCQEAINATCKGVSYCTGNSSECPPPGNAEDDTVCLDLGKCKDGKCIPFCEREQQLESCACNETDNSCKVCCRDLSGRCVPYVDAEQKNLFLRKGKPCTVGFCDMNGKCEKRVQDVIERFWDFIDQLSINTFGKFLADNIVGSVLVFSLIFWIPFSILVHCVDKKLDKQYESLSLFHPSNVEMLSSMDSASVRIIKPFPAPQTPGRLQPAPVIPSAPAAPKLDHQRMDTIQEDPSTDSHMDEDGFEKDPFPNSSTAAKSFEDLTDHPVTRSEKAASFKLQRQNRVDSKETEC

[7] = cytotoxicity in A549 cells, dose response, cytotoxicity control, cell-based, CellTiter-Glo luminescence, cherry-pick (AID 743484); type: functional
[8] = HEK293T cell cytotoxicity, dose response, cytotoxicity control, CellTiter-Glo luminescence, cherry-picked samples, set 4 (AID 743441); type: functional, cell-based; settings: HEK293
[9] = molecular target: 1-phosphatidylinositol 4,5-bisphosphate phosphodiesterase gamma-1 (Homo sapiens, UniProt P19174); assay: Counterscreen for inhibitors of phospholipase C isozymes (PLC-B3): Fluorescence-based biochemical high throughput dose response assay to identify inhibitors of phospholipase C isozymes (PLC-gamma1).
Sequence of 1-phosphatidylinositol 4,5-bisphosphate phosphodiesterase gamma-1 (P19174 whole entry): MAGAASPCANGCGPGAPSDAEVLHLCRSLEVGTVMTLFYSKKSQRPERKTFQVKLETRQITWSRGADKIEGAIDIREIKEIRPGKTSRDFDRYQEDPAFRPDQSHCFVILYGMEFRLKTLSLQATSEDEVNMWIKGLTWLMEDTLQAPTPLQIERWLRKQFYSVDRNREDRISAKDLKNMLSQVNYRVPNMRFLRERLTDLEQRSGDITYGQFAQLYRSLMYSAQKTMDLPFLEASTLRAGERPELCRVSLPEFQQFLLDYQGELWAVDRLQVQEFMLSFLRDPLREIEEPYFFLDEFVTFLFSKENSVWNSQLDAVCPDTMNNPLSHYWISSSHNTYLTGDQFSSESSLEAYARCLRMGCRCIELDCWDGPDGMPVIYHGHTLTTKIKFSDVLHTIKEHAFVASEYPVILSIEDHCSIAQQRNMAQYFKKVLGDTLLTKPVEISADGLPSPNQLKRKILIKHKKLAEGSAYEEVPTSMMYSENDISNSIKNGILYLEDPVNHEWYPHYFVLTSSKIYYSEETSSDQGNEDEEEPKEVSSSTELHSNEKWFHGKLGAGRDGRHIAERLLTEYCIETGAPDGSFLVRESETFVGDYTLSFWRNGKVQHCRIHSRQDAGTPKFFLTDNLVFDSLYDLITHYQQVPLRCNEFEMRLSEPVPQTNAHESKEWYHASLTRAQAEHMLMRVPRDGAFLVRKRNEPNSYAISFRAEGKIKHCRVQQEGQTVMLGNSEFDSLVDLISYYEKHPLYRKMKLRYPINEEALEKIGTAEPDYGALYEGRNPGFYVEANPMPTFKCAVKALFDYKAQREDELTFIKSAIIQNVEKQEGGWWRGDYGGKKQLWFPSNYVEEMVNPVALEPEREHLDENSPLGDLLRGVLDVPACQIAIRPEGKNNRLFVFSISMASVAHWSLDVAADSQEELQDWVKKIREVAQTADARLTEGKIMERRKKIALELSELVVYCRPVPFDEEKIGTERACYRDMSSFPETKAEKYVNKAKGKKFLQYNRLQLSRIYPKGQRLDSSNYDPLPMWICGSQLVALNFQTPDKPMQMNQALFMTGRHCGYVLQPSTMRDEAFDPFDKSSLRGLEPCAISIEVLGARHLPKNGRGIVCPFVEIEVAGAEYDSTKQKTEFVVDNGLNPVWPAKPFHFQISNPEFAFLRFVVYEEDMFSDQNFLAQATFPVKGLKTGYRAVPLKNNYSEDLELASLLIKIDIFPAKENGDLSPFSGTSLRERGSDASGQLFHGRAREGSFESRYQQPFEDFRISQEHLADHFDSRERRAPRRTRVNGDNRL

[10] = molecular target: 1-phosphatidylinositol 4,5-bisphosphate phosphodiesterase beta-3 (Homo sapiens, UniProt Q01970); assay: Fluorescence-based biochemical high throughput dose response assay to identify inhibitors of phospholipase C isozymes (PLC-B3).
[11] = molecular target: fMet-Leu-Phe receptor (Homo sapiens, UniProt P21462); assay: FPR ligands, dose response (AID 519); type: functional
Sequence of fMet-Leu-Phe receptor (P21462 whole entry): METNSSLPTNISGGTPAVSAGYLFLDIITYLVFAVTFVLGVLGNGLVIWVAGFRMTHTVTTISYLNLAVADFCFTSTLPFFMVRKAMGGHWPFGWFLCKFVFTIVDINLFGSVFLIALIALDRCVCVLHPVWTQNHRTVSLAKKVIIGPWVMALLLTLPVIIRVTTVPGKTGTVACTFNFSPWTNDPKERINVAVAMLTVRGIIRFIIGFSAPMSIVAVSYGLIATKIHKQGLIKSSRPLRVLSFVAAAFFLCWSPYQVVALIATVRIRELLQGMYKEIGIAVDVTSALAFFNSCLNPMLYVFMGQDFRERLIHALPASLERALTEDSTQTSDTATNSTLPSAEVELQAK

[12] = molecular target: Potassium channel subfamily K member 3 (Homo sapiens, UniProt O14649); assay: TASK1 (KCNK3) potassium channel inhibitors, SAR follow-up, CHO cells, FluxOR thallium flux (AID 652212); type: functional
Sequence of Potassium channel subfamily K member 3 (O14649 whole entry): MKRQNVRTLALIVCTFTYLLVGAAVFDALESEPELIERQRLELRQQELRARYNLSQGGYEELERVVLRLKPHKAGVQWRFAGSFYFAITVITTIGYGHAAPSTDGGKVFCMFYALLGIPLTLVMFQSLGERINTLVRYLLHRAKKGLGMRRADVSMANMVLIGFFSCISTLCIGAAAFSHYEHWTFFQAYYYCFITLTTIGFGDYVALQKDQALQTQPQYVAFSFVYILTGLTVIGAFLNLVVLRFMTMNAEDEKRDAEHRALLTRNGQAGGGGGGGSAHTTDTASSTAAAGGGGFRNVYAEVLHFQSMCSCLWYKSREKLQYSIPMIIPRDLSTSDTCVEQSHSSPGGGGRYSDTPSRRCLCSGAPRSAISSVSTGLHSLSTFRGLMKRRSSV

[13] = Luminescence Cell-Based Dose Retest to Confirm Inhibitors of Cancer Stem Cells. [Related pubchem assays (depositor defined):AID2717, AID2721]; type: functional; settings: Homo sapiens
[14] = HepG2 cell cytotoxicity, dose response, cytotoxicity control, ATP luminescence, cherry-pick, activator set 2 (AID 1053143); type: functional, cell-based
[15] = molecular target: T1, Methionyl-tRNA synthetase, putative (Trypanosoma brucei brucei, UniProt Q38C91); type: functional, Trypanosoma brucei brucei strain 927/4 GUTat10.1
T1 sequence (Q38C91 whole entry): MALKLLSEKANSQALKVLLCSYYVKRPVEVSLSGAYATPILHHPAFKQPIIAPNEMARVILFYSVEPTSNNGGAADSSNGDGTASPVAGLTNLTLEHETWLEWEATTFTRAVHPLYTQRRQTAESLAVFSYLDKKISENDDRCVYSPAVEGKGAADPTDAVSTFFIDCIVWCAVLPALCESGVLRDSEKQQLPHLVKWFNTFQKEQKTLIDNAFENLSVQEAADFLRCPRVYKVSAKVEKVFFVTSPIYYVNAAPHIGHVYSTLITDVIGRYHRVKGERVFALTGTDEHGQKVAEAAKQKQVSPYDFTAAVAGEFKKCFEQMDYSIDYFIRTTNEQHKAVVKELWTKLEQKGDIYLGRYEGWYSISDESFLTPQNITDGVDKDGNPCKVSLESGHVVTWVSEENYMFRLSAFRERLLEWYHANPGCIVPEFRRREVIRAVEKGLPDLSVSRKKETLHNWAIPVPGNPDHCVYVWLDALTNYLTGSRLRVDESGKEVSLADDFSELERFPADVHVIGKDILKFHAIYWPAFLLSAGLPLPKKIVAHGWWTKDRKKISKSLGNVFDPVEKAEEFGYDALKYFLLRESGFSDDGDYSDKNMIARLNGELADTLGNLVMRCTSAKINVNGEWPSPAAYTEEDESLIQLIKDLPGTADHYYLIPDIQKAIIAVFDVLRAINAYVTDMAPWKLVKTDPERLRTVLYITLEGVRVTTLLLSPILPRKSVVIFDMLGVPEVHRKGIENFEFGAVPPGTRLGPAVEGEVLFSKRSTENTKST

[16] = Late stage counterscreen for inhibitors of Trypanosoma brucei methionyl tRNA synthetase (MetRS): Luminescence-based cell-based high throughput dose response assay to identify compounds that are cytotoxic to Jurkat human T lymphocyte cells.; type: functional
[17] = molecular target: T1, Methionyl-tRNA synthetase, putative; type: functional, Trypanosoma brucei brucei strain 927/4 GUTat10.1; remark: listed apart in the source
[18] = Counterscreen for inhibitors of Trypanosoma brucei methionyl tRNA synthetase (MetRS): Luminescence-based cell-based high throughput dose response assay to identify compounds that are cytotoxic to Jurkat human T lymphocyte cells.; type: functional

Structure (SMILES): COc1cccc2nc3c(C(=O)NCCN(C)C)cccc3cc12
EC50 [1]: > 10.1 µM (inactive) | IC50 [2]: > 43.8 µM (inactive) | EC50 [3]: > 91.2 µM (inactive)

Structure (SMILES): Cc1cc(C2(O)C(=O)Nc3ccccc32)ccc1F (stereo not drawn)
AC50 [4]: 13 µM (active)

IC50 [6]: > 69.5 µM (inactive)
Structure (SMILES): CC(C)C(NS(=O)(=O)c1c(Cl)cccc1Cl)C(=O)OCC(=O)c1c[nH]c2ccccc12 (stereo not drawn)
IC50 [5]: > 7.72 µM (active)

Structure (SMILES): C=CCNC(=O)c1ccccc1NC(=O)c1ccc(Cl)c(S(=O)(=O)Nc2cccc(C)c2C)c1
AC50 [7]: 30.1 µM (active) | AC50 [8]: 36.7 µM (active)

IC50 [9]: > 122 µM (inactive) | IC50 [10]: > 122 µM (inactive)
Structure (SMILES): Cc1ccc(NC(=O)c2nn(C34CC5CC(CC(C5)C3)C4)cc2[N+](=O)[O-])cc1

Ki [11]: 3.4 µM (active)
Structure (SMILES): COc1ccc(OC)c(C2C(C(=O)c3ccccc3)=C(O)C(=O)N2Cc2ccco2)c1 (stereo not drawn)

IC50 [12]: 0.046 µM (active)
Structure (SMILES): O=C(Nc1cccc(NC(=O)c2cccc(F)c2)c1)c1ccccc1

Structure (SMILES): Cc1ccc(C(=O)Nc2ncc(Cc3ccccc3)s2)o1
AC50 [13]: 0.319 µM (active) | AC50 [14]: 12 µM (active)

Structure (SMILES): CN(CC(=O)Nc1ccc(Cl)cc1)C(=O)c1ccc(-n2cncn2)c([N+](=O)[O-])c1
IC50 [15]: 1.18 µM (active) | IC50 [16]: > 83.3 µM (inactive) | IC50 [17]: 2 µM (active) | IC50 [18]: 83.3 µM (inactive)
